This test deals with MCH receptor (Homo sapiens, UniProt Q99705). Briefly: High throughput functional screening FLIPR/FDSS6000: inhibition of MCH-evoked intracellular Ca2+ changes. In kind it is cell-based. To be noted: class by percent of control at 10^−7 M or by IC50; read-out: class. The procedure, abridged:
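Cells expressing a non-endogenous, constitutively active MCH receptor were loaded with 4 μM Fluo4-AM (with probenecid) for 1 hr at 37° C. Test compound was preincubated 3 min at 37° C before 50 nM MCH was added. The [Ca2+]i transient was read at Ex 488/Em 530 nm for 290 s.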

A value given as a limit tells only on which side of the number the result lay.

For `COc1cccc(Oc2ncccc2C(=O)N[C@H]2CC[C@@H](Nc3nc(N(C)C)c4ccccc4n3)CC2)c1` [Example 1035, N-(cis-4-{[4-(dimethylamino)quinazolin-2-yl]amino}cyclohexyl)-2-(3-methoxyphenoxy)nicotinamide], the IC50 was below 50 nM.
The result for `CN(C)c1nc(N[C@H]2CC[C@@H](NC(=O)c3cccnc3Oc3cccc(OC(F)(F)F)c3)CC2)nc2ccccc12` [Example 1036, N-(cis-4-{[4-(dimethylamino)quinazolin-2-yl]amino}cyclohexyl)-2-[3-(trifluoromethoxy)phenoxy]nicotinamide] reads below 50 nM; that for `CN(C)c1nc(N[C@H]2CC[C@@H](NC(=O)c3cccnc3Oc3ccc(OC(F)(F)F)cc3)CC2)nc2ccccc12` [Example 1037, N-(cis-4-{[4-(dimethylamino)quinazolin-2-yl]amino}cyclohexyl)-2-[4-(trifluoromethoxy)phenoxy]nicotinamide], below 50 nM.
As for `CN(C)c1nc(N[C@H]2CC[C@@H](NC(=O)c3cccnc3Oc3ccc(F)c(F)c3)CC2)nc2ccccc12` [Example 1038, 2-(3,4-difluorophenoxy)-N-(cis-4-{[4-(dimethylamino)quinazolin-2-yl]amino}cyclohexyl)nicotinamide], the IC50 is below 50 nM.
The result for `COc1cc(OC)cc(Oc2ncccc2C(=O)N[C@H]2CC[C@@H](Nc3nc(N(C)C)c4ccccc4n3)CC2)c1` [Example 1039, 2-(3,5-dimethoxyphenoxy)-N-(cis-4-{[4-(dimethylamino)quinazolin-2-yl]amino}cyclohexyl)nicotinamide] reads below 50 nM.
As for `COc1cccc(Oc2ncccc2C(=O)N[C@H]2CC[C@@H](Nc3nc(N(C)C)c4ccccc4n3)CC2)c1OC` [Example 1040, 2-(2,3-dimethoxyphenoxy)-N-(cis-4-{[4-(dimethylamino)quinazolin-2-yl]-amino}cyclohexyl)nicotinamide], the IC50 is below 50 nM.
To `COc1cc(Oc2ncccc2C(=O)N[C@H]2CC[C@@H](Nc3nc(N(C)C)c4ccccc4n3)CC2)cc(OC)c1OC` [Example 1041, N-(cis-4-{[4-(dimethylamino)quinazolin-2-yl]amino}cyclohexyl)-2-(3,4,5-trimethoxyphenoxy)nicotinamide] belongs below 50 nM.
To `CN(C)c1nc(N[C@H]2CC[C@@H](NC(=O)c3cccnc3Oc3ccc(Cl)c(F)c3)CC2)nc2ccccc12` [Example 1042, 2-(4-chloro-3-fluorophenoxy)-N-(cis-4-{[4-(dimethylamino)quinazolin-2-yl]amino}cyclohexyl)nicotinamide] belongs below 50 nM.
To `CN(C)c1nc(N[C@H]2CC[C@@H](NC(=O)c3cccnc3Oc3ccc(F)c(Cl)c3)CC2)nc2ccccc12` [Example 1043, 2-(3-chloro-4-fluorophenoxy)-N-(cis-4-{[4-(dimethylamino)quinazolin-2-yl]amino}cyclohexyl)nicotinamide] belongs below 50 nM; to `COc1ccc(CN[C@@H]2CC[C@H](Nc3nc(N(C)C)c4ccccc4n3)C2)c(OC)c1` [Example 1044, N2-{(1S,3R)-3-[(2,4-dimethoxybenzyl)amino]cyclopentyl}-N4,N4-dimethylquinazoline-2,4-diamine], above 200 nM.
Regarding `CN(C)c1nc(N[C@H]2CC[C@@H](NCc3ccc(OC(F)(F)F)cc3)C2)nc2ccccc12` [Example 1047, N4,N4-dimethyl-N2-((1S,3R)-3-{[4-(trifluoromethoxy)benzyl]-amino}cyclopentyl)quinazoline-2,4-diamine], the IC50 is above 200 nM.
To `CN(C)c1nc(N[C@H]2CC[C@@H](NCc3ccc(Br)cc3OC(F)(F)F)C2)nc2ccccc12` [Example 1048, N2-((1S,3R)-3-{[4-bromo-2-(trifluoromethoxy)benzyl]-amino}cyclopentyl)-N4,N4-dimethylquinazoline-2,4-diamine] belongs above 200 nM; to `CN(C)c1nc(N[C@H]2CC[C@@H](NCc3ccc(F)c(F)c3)C2)nc2ccccc12` [Example 1049, N2-{(1S,3R)-3-[(3,4-difluorobenzyl)amino]cyclopentyl}-N4,N4-dimethylquinazoline-2,4-diamine], above 200 nM; to `CN(C)c1nc(N[C@H]2CC[C@@H](NC(=O)c3ccc(Oc4ccccc4F)nc3)CC2)nc2ccccc12` [Example 1050, N-(cis-4-{[4-(dimethylamino)quinazolin-2-yl]amino}cyclohexyl)-6-(2-fluorophenoxy)nicotinamide], below 50 nM.
Take `CN(C)c1nc(N[C@H]2CC[C@@H](NC(=O)c3ccc(Oc4ccccc4Cl)nc3)CC2)nc2ccccc12` [Example 1051, 6-(2-chlorophenoxy)-N-(cis-4-{[4-(dimethylamino)quinazolin-2-yl]amino}cyclohexyl)nicotinamide]: the IC50 was above 200 nM.
To `CN(C)c1nc(N[C@H]2CC[C@@H](NC(=O)c3ccc(Oc4ccccc4Br)nc3)CC2)nc2ccccc12` [Example 1052, 6-(2-bromophenoxy)-N-(cis-4-{[4-(dimethylamino)quinazolin-2-yl]amino}cyclohexyl)nicotinamide] belongs above 200 nM; to `COc1ccccc1Oc1ccc(C(=O)N[C@H]2CC[C@@H](Nc3nc(N(C)C)c4ccccc4n3)CC2)cn1` [Example 1054, N-(cis-4-{[4-(dimethylamino)quinazolin-2-yl]amino}cyclohexyl)-6-(2-methoxyphenoxy)nicotinamide], below 50 nM.
As to `COc1cccc(Oc2ccc(C(=O)N[C@H]3CC[C@@H](Nc4nc(N(C)C)c5ccccc5n4)CC3)cn2)c1` [Example 1056, N-(cis-4-{[4-(dimethylamino)quinazolin-2-yl]amino}cyclohexyl)-6-(3-methoxyphenoxy)nicotinamide], the IC50 is below 50 nM.
To `CN(C)c1nc(N[C@H]2CC[C@@H](NC(=O)c3ccc(Oc4cccc(C(F)(F)F)c4)nc3)CC2)nc2ccccc12` [Example 1057, N-(cis-4-{[4-(dimethylamino)quinazolin-2-yl]amino}cyclohexyl)-6-[3-(trifluoromethyl)phenoxy]nicotinamide] belongs below 50 nM; to `CN(C)c1nc(N[C@H]2CC[C@@H](NC(=O)c3ccc(Oc4ccc(F)cc4)nc3)CC2)nc2ccccc12` [Example 1059, N-(cis-4-{[4-(dimethylamino)quinazolin-2-yl]amino}cyclohexyl)-6-(4-fluorophenoxy)nicotinamide], above 200 nM; to `CN(C)c1nc(N[C@H]2CC[C@@H](NC(=O)c3ccc(Oc4ccc(Cl)cc4)nc3)CC2)nc2ccccc12` [Example 1060, 6-(4-chlorophenoxy)-N-(cis-4-{[4-(dimethylamino)quinazolin-2-yl]amino}cyclohexyl)nicotinamide], below 50 nM.
The result for `CN(C)c1nc(N[C@H]2CC[C@@H](NC(=O)c3ccc(Oc4ccc(Br)cc4)nc3)CC2)nc2ccccc12` [Example 1061, 6-(4-bromophenoxy)-N-(cis-4-{[4-(dimethylamino)quinazolin-2-yl]amino}cyclohexyl)nicotinamide] reads above 200 nM; that for `CN(C)c1nc(N[C@H]2CC[C@@H](NC(=O)c3ccc(Oc4ccc(OC(F)(F)F)cc4)nc3)CC2)nc2ccccc12` [Example 1062, N-(cis-4-{[4-(dimethylamino)quinazolin-2-yl]amino}cyclohexyl)-6-[4-(trifluoromethoxy)phenoxy]nicotinamide], above 200 nM.
